Results: patent US6780885B1, “Formulations and methods for administration of pharmacologically or biologically active compounds” (IDEXX Laboratories, Inc., priority 2000, dated 2004)

Columns and labels:
cecal worms (Heterakis) = experiment: ivermectin formulation in the drinking water of turkeys, cecal worms; format: in vivo; details: in three days
Protocol: (§1) The 2% ivermectin solution is diluted 20-fold to 0.1% in water. From the 0.1%, 3.4 ml is dissolved in 5 liters (QS) of water. The dose to be administered in order to obtain effective treatment of various parasites depends on the size of the fowl to be treated (i.e., their drinking capacity). A 4.5 kg turkey will typically drink 600-1000 ml of water every 24 hours. This corresponds to a dose of 100-150 μgm/kg/day. […] The effective dose to administer to any other type of animal to treat a particular type of parasite can be easily determined by simply varying the dosage until arriving at an effective dose.

roundworms (Ascaridia) = experiment: ivermectin formulation in the drinking water of turkeys, roundworm infestation; format: in vivo; details: in three days
Protocol: as §1
A non-aqueous, stable formulation of ivermectin was prepared and diluted into the drinking water of market male turkeys as described above. […] The birds were treated at levels of 10, 50, 100, 200, 250, 500, 1200, and 1400 mg/kg of body weight/day. […] The formulation was effective at completely eliminating any visible signs of roundworm infestation at levels down to […] body weight/day in three days.

ivermectin
dose effective to completely eliminate cecal worms (Heterakis) (cecal worms (Heterakis); in drinking water): 200 mg ivermectin/kg body weight/day | elimination of cecal worms (cecal worms (Heterakis); formulation in drinking water): complete elimination | dose effective to completely eliminate roundworms (Ascaridia) (roundworms (Ascaridia); in drinking water): 200 mg ivermectin/kg body weight/day | elimination of roundworms (roundworms (Ascaridia); formulation in drinking water): complete elimination
